BindingDB's records for patent US20240083900 (Biogen Ma, 2024)

Molecular target: Tyrosine-protein kinase BTK (Homo sapiens, UniProt Q06187)
Assay: In Vitro BTK Kinase Assay: Btk-PolyGAT-LS Assay
Method: The purpose of the BTK in vitro assay is to determine compound potency against BTK through the measurement of IC50. […] For a typical assay, a 24 μL aliquot of a ATP/peptide master mix (final concentration; ATP 10 μM, polyGAT 100 nM) in kinase buffer (10 mM Tris-HCl pH 7.5, 10 mM MgCl2, 200 μM Na3PO4, 5 mM DTT, 0.01% Triton X-100, and 0.2 mg/ml casein) is added to each well. […] The assay is incubated for 30 minutes before being stopped with 28 μL of a 50 mM EDTA solution. […] The plate is covered and incubated for 45 minutes at room temperature.

Tyrosine-protein kinase BTK, sequence (Q06187 whole entry): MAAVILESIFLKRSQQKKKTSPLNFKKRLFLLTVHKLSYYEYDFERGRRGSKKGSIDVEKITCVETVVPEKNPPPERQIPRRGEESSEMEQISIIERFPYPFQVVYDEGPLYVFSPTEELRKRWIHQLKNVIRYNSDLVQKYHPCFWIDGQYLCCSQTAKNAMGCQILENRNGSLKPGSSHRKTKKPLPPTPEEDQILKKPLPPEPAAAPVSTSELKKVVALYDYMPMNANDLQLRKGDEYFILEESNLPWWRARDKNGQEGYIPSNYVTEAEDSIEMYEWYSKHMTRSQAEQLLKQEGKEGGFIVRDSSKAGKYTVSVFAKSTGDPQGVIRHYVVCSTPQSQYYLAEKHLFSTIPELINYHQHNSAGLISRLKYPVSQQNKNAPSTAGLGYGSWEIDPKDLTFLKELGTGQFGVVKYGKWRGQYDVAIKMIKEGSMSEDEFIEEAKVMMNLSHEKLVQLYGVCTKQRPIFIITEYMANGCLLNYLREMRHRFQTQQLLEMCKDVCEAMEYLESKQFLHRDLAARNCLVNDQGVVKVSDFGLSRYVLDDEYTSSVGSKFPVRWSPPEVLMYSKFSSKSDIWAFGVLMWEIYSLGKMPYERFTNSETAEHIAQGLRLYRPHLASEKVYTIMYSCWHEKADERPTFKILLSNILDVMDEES

`Cn1cc(-c2cn3nccc3c(OC3CCN(C(=O)/C=C\CCl)CC3)n2)cn1` [US20240083900, Example 8] showed an IC50 of under 1 nM.
